The text below walks through data of patent US20230331734A1, “NOVEL SPIROPYRROLIDINE DERIVED ANTIVIRAL AGENTS” (ENANTA PHARMACEUTICALS, INC., priority 2022, published 2023).

For orientation: IC50 means the concentration needed to halve the response being measured. One may read the EC50 as the midpoint of the concentration-response curve. The low end stands for higher potency in that assay, the high end for lower potency in that assay.

Test [1] addresses SARS-CoV-2 3CL-protease (Severe acute respiratory syndrome coronavirus 2 (2019-nCoV) (SARS-CoV-2), UniProt P0DTD1). Briefly: SARS-CoV-2 3C-like (3CL) protease fluorescence assay (FRET). In kind it is biochemical. As to conditions: recombinant SARS-CoV-2 3CL-protease 10 nM, 30 min preincubation, substrate 40 μM, duplicate.
The subject of test [2] is 229E human coronavirus (hCoV). Briefly: microbe, parasite or virus in culture. In kind it is cell-based. As to conditions: unidentified human coronavirus, MRC5, 144 h; MRC-5 cells, MOI 0.05, 6 days at 34° C., ATPlite, duplicate.
In test [3] the test system is norovirus. Conditions: phase II randomized double-blind trial, patients; cited from earlier work.

In the case of `CC(C)[C@H](NC(=O)OCc1ccccc1)C(=O)CC(Cc1ccc(F)cc1)C(=O)N1C[C@]2(C[C@H]1C#N)C(=O)Nc1ccccc12` (some centres unmarked) [Example 1], the IC50 in test [1] lay in the range of 100 to 1000 nM. This molecule also displayed an EC50 in test [2] of over 1000 nM.

On to `CCOC(=O)/C=C/[C@@H]1C[C@@]2(CN1C(=O)[C@@H](CC(=O)[C@@H](NC(=O)OC(C)(C)C)C(C)C)Cc1ccc(F)cc1)C(=O)Nc1ccccc12` [Example 25], for which the IC50 in test [1] was over 1000 nM.

For `Cc1cc(C(=O)N[C@H](C(=O)C[C@@H](Cc2ccc(F)cc2)C(=O)N2C[C@]3(C[C@H]2C#N)C(=O)Nc2ccccc23)C(C)C)no1` [Example 5], in test [1], the IC50 was under 100 nM.

As for `CC(=O)Oc1ccccc1C(=O)Nc1ncc([N+](=O)[O-])s1` [NTZ, nitazoxanide], the “reduction of gastroenteritis symptoms” value in test [3] was 24 h.

As to `CC(C)[C@H](NC(=O)OC(C)(C)C)C(=O)C[C@@H](Cc1ccc(F)cc1)C(=O)N1C[C@]2(C[C@H]1C#N)C(=O)Nc1ccccc12` [Example 26], the IC50 in test [1] is under 100 nM.

For the molecule `CC(C)[C@H](NC(=O)C(F)(F)F)C(=O)CC(Cc1ccc(F)cc1)C(=O)N1C[C@]2(C[C@H]1C#N)C(=O)Nc1ccccc12` (some centres unmarked) [Example 2], the IC50 in test [1] was in the range of 100 to 1000 nM. The molecule also registered an EC50 in test [2] of over 1000 nM.

Regarding `CC(C)CC(CC(=O)[C@@H](NC(=O)OCc1ccccc1)C(C)C)C(=O)N1C[C@]2(C[C@H]1C#N)C(=O)Nc1ccccc12` (some centres unmarked) [Example 3], in test [1], the IC50 is over 1000 nM. Further, in test [2], the EC50 is over 1000 nM.

In the case of `CCOC(=O)/C=C/[C@@H]1C[C@@]2(CN1C(=O)[C@@H](CC(=O)[C@@H](NC(=O)c1cc(C)on1)C(C)C)Cc1ccc(F)cc1)C(=O)Nc1ccccc12` [Example 6], in test [1], the half-maximal inhibitory concentration (IC50) is over 1000 nM.
